From patent US20240358782A1, “Regulatory Composition of the Neuro-Immune-Endocrine and Cortisol Reducing System of the Human Being” (priority 2020, published 2024)
Marks after values point to notes of the source that are not given here.

Experiments:
[1] = test system: chorio-allantoic membrane of hen embryonated egg
Description: The first step was to evaluate the cytotoxicity of the composition in a chicken embryonated egg chorio-allantoic membrane (HET-CAM) assay (FIG. 1).

[2] = test system: monoamine oxidase (MAO); conditions: in vitro; cited from earlier work
[3] = test system: male Wistar rats; experiment: Serum IL-10, IL-6 and TNF-alpha after 10 days of oral treatment (Example 1, Phase 1); format: in vivo, rat; conditions: oral daily 10 days, dose 257 mg/kgPV (Enramicine 96 mg/kgPV), mean ± standard error
Description: (§1) In Phase 1, the experiment consisted of providing the same amount (in mg), per kg of live weight (mg/kg BW), of each of the components of the composition of this invention, as well as the same amount of the composition, and comparing the effects with that of control animals, which received placebo or the antibiotic Enramycin. After 10 days, an evaluation of the immune system of the […] of each of the groups was carried out.
(§2) In this way, different groups of male Wistar rats were randomly marked on the tails for identification. The animals were adapted to the laboratory environment for one week before the treatments. Initially, after a 6 h fasting period, the body weight of the animals was determined and the dose of the Composition and Enramycin […] were calculated. The animals were divided into 11 (eleven) groups of 10 (ten) individuals. The animals were treated daily, orally (used in the animals used as reference), with placebo (vehicle; filtered water 1 mL/kg BW) or with FOS Ingredion (257 mg/kg BW), FOS Yes (257 mg/kg BW) kgPV), GOS Yes (257 mg/kgPV), Yes MOS (257 mg/kgPV), Yes GlucanMOS (257 mg/kgPV), Glucangold Yes (77 mg/kgPV), Mixture 1 (FOS Yes+GOS Yes) (257 mg/kgPV), Composition of this invention (GlucanGold Yes+GOS Yes+FOS Yes, containing 20% of 1,3 and 1,6 beta-glucans, 29% of GOS and 31% of FOS by mass on total mass %) ([…]). An experimental group called naive underwent simulated gavage (without any treatment). All the animals that composed the different experimental groups received the treatment for 10 days. At the end of the experiments, and before euthanasia, the animals were fasted for 6 hours with free access to water. Final body weight was recorded to calculate relative organ weight. Then, under anesthesia with isoflurane (2-3%), 5 mL of blood was obtained from the left jugular vein for the evaluation of biochemical parameters. After this procedure, the animals were euthanized with a supra-pharmacological dose of isoflurane (10-15%) in a saturation chamber. […]

[4] = test system: male Wistar rats; experiment: Tissue levels of lipoperoxides (LPO) after 10 days of oral treatment (Example 1, Phase 1); format: in vivo, rat; conditions: oral daily 10 days, mean ± standard error
[5] = test system: male Wistar rats; experiment: Serum redox state markers after 10 days of oral treatment (Example 1, Phase 1); format: in vivo, rat; conditions: oral daily 10 days, dose 257 ml/kgPV, mean ± standard error
Description: as §1, §2

[6] = test system: Salmonella enterica serovar Enteritidis (phagetype PT4); experiment: Salmonella challenge: deaths and serum cytokines (Example 1, phase 2); format: in vivo, rat; conditions: oral treatment 20 days, dose 257 mg/kgPV (Enramicine 96 mg/kgPV)
Description: In phase 2, the experiment consisted of repeating the treatments of Phase 1, for 10 days, and inoculating the groups, except the so-called naive (negative control), with a high dose of Salmonella enteritidis. After 20 days, the mortality and the behavior of the immune system of the rats of each group were observed.
In this way, different groups of male rats were randomly marked on the tails for identification. The animals were adapted to the laboratory environment for one week before the beginning of the experiments. After a 6 h fasting period, the animals' body weight was determined and the dose of the prebiotics, the composition of this invention and Enramycin were calculated. The animals were divided into 11 (eleven) groups of 10 (ten) individuals. The animals were treated daily, by the oral route (used in the animals used as reference), with placebo (vehicle; filtered water 1 mL/kg BW) or with FOS ingredion (257 mg/kg BW), FOS Yes (257 mg/kg BW). kgPV), GOS Yes (257 mg/kgPV), Yes MOS (257 mg/kgPV), GlucanMOS (257 mg/kgPV), Glucangold Yes (77 mg/kgPV), Mixture 1 (FOS Yes+GOS Yes) (257 mg/kgPV), Composition of this invention (GlucanGold Yes+GOS Yes+FOS Yes, containing 20% of 1,3 and 1,6 beta-glucans, 31% of GOS and 29% of FOS by mass on mass %) ([…]). All treatments were performed for 20 days. After 10 days from the beginning of treatments, the aforementioned groups received a challenge with 1 mL (10^8 colony forming units [cfu]/mL) of a strain of Salmonella enterica serovar Enteritidis (phagetype PT4), orally (gavage).
An experimental group called naive underwent sham gavage (no treatment) and was not infected with any bacterial strain. At the end of the experiments, and before euthanasia, the surviving animals were fasted for 6 hours with free access to water. Then, under anesthesia with isoflurane (2-3%), 5 mL of blood was obtained from the left jugular vein for the evaluation of biochemical parameters. After this procedure, the animals were euthanized with a supra-pharmacological dose of isoflurane (10-15%) in a saturation chamber. Immediately after euthanasia, target organs were removed for analysis.
Table 8, below, indicates the effects of treatments with different isolated components, with the Composition according to the invention, or with Enramincin, on the serum levels of interleukin 10 (IL-10), IL-6 and tumor necrosis factor alpha (TNF-alpha) from male Wistar rats infected with Salmonella enterica.

[7] = dose 257 mg/kgPV (Enramicine 96 mg/kgPV)
[8] = dose 257 ml/kgPV (Enramicine 96 ml/kgPV)
[9] = serum, Salmonella-infected male Wistar rats, mean ± standard error

In the case of [Na+].[OH-] [NAOH, Sodium Hydroxide], the “hemorrhagic (cytotoxic) effect / irritation on chorio-allantoic membrane” value [1] is reported as “lyse blood vessels, resulting in hemorrhage”.
For COc1cc(C2Oc3cc([C@H]4Oc5cc(O)cc(O)c5C(=O)[C@@H]4O)ccc3OC2CO)ccc1O (stereo partly drawn) [siliinin], the “inhibition of monoamine oxidase (MAO) activity” value [2] is listed as “inhibits the activity of monoamine oxidase (MAO)”.
In the case of Enramycin [Enramicine], the IL-6 [3] is reported as 210.5 ± 25.5 pg/mL, the IL-10 [3] is reported as 15.3 ± 5.1 pg/mL and the TFN-alfa [3] is reported as 8.0 ± 1.5 pg/mL. The “LPO, Kidneys” value [4, 7] was 119.4 ± 7.1 U/mg of protein, the “LPO, Liver” value [4, 7] was 170.1 ± 14.1 U/mg of protein and the “LPO, Spleen” value [4, 7] was 117.5 ± 10.1 U/mg of protein. The “tissue lipoperoxides (LPO), Cecum” value [4, 8] was 170.2 ± 10.0, the “tissue lipoperoxides (LPO), Colon” value [4, 8] was 230.2 ± 11.2 and the “tissue lipoperoxides (LPO), Ileum” value [4, 8] was 117.9 ± 14.2. It also gave a Malondialdehyde [5] of 2.1 ± 0.15 mmol/L, a Nitrite [5] of 45.3 ± 5.51% and a Nitrotirosine [5] of 0.007 ± 0.003 µmol/L. For the same compound, the Deaths ([6]; male Wistar rats, Salmonella enterica challenge (1 mL, 10^8 cfu/mL) after 10 days) was 0%, the IL-6 [6, 9] was 249.7 ± 37.7 pg/mL and the IL-10 [6, 9] was 16.6 ± 0.9^b pg/ml. For the same compound, the TFN-alfa [6, 9] was 10.7 ± 1.1^b pg/ml.
